Values belong to the compound of their own block, whether it stands above or below them.
Tests used:
Type in all cases: cell-based
[1] = molecular target: T1, ATP-dependent translocase ABCB1 (Homo sapiens, UniProt P08183); experiment: Inhibition of human ABCB1 pump expressed in mouse L5178 cells assessed as fluorescence activity ratio at 20 uM for 10 mins by flow cytometry relative to control; details: l5178, 10 min
[2] = molecular target: T1, ATP-dependent translocase ABCB1; experiment: Inhibition of human ABCB1 expressed in mouse L5178 cells assessed as 50% inhibition of cell proliferation at compound-doxorubicin ratio of 81.5:1 after 48 hrs by MTT assay; details: l5178, 48 h
[3] = molecular target: T1, ATP-dependent translocase ABCB1; experiment: Inhibition of human ABCB1 expressed in mouse L5178 cells assessed as 75% inhibition of cell proliferation at compound-doxorubicin ratio of 81.5:1 after 48 hrs by MTT assay; details: l5178, 48 h
[4] = molecular target: T1, ATP-dependent translocase ABCB1; experiment: Inhibition of human ABCB1 expressed in mouse L5178 cells assessed as 95% inhibition of cell proliferation at compound-doxorubicin ratio of 81.5:1 after 48 hrs by MTT assay; details: l5178, 48 h
[5] = molecular target: T1, ATP-dependent translocase ABCB1; experiment: Inhibition of human ABCB1 expressed in mouse L5178 cells assessed as 50% inhibition of cell proliferation at compound-doxorubicin ratio of 20.4:1 after 48 hrs by MTT assay; details: l5178, 48 h
[6] = molecular target: T1, ATP-dependent translocase ABCB1; experiment: Inhibition of human ABCB1 expressed in mouse L5178 cells assessed as 75% inhibition of cell proliferation at compound-doxorubicin ratio of 20.4:1 after 48 hrs by MTT assay; details: l5178, 48 h
[7] = molecular target: T1, ATP-dependent translocase ABCB1; experiment: Inhibition of human ABCB1 expressed in mouse L5178 cells assessed as 95% inhibition of cell proliferation at compound-doxorubicin ratio of 20.4:1 after 48 hrs by MTT assay; details: l5178, 48 h

T1 sequence (P08183 whole entry): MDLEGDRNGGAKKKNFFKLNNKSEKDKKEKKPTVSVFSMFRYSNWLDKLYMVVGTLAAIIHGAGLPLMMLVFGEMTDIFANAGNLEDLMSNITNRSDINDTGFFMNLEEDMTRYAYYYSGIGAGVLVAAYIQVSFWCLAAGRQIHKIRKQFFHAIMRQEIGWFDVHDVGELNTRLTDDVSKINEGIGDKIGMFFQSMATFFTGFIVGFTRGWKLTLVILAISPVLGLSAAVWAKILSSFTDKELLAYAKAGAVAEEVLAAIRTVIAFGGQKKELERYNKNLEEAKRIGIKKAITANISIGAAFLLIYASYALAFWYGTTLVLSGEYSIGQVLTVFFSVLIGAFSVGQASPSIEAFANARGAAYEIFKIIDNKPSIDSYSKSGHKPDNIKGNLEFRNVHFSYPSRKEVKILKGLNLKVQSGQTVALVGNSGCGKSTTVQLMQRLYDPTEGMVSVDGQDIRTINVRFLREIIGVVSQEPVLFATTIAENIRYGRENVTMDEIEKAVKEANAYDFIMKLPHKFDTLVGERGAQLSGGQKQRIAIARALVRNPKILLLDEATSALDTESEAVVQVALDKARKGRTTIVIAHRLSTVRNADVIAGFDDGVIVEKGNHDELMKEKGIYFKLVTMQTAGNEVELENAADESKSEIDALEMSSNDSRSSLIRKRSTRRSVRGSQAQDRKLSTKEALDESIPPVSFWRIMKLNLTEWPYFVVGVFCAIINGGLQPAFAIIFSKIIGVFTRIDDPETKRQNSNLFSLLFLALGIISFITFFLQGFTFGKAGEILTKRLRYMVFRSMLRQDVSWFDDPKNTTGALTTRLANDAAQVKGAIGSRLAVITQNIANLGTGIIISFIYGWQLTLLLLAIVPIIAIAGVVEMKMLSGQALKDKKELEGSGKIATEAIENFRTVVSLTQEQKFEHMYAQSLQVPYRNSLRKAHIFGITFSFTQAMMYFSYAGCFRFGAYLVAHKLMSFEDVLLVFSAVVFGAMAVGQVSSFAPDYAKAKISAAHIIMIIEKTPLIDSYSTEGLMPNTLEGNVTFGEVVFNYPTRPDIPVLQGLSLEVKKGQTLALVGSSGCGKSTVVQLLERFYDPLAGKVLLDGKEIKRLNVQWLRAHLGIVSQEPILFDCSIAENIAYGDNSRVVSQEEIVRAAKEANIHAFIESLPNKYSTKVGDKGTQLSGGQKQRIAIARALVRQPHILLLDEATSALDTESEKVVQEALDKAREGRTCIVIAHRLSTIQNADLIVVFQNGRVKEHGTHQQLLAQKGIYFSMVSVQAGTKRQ

Structure (SMILES): CC(C)(O)CC[C@@H](O)[C@](C)(O)[C@H]1CC[C@@]2(O)C3=CC(=O)[C@@H]4C[C@@H](O)[C@@H](O)C[C@]4(C)C3=CC[C@]12C
Ratio [1]: 1.24
fractional inhibitory concentration index (FICI) [2]: 2.66
fractional inhibitory concentration index (FICI) [3]: 3.35
fractional inhibitory concentration index (FICI) [4]: 4.61

Structure (SMILES): CC(C)(O)CC[C@@H](O)[C@](C)(O)[C@H]1CC[C@@]2(O)C3=CC(=O)[C@H]4C[C@@H](O)C[C@@H](O)[C@]4(C)[C@H]3CC[C@]12C
Ratio [1]: 0.68
fractional inhibitory concentration index (FICI) [5]: 2.48
fractional inhibitory concentration index (FICI) [6]: 1.7
fractional inhibitory concentration index (FICI) [7]: 1.97

Structure (SMILES): CC(C)(O)CCC[C@](C)(O)[C@H]1CC[C@@]2(O)C3=CC(=O)[C@@H]4C[C@@H](O)[C@@H](O)C[C@]4(C)[C@H]3CC[C@]12C
Ratio [1]: 0.67
fractional inhibitory concentration index (FICI) [2]: 2.04
fractional inhibitory concentration index (FICI) [3]: 1.75
fractional inhibitory concentration index (FICI) [4]: 1.59

Structure (SMILES): C[C@H]([C@H](O)CCC(C)(C)O)[C@H]1CC[C@@]2(O)C3=CC(=O)[C@@H]4C[C@@H](O)CC[C@]4(C)[C@H]3CC[C@]12C
Ratio [1]: 0.94
fractional inhibitory concentration index (FICI) [2]: 2.05
fractional inhibitory concentration index (FICI) [3]: 1.27
fractional inhibitory concentration index (FICI) [4]: 0.81

Ratio [1]: 1.58
Structure (SMILES): C=C(CCCC(C)(C)O)[C@H]1CC[C@@]2(O)C3=CC(=O)[C@@H]4C[C@@H](O)[C@@H](O)[C@@H](O)[C@]4(C)[C@H]3CC[C@]12C
fractional inhibitory concentration index (FICI) [5]: 0.79
fractional inhibitory concentration index (FICI) [6]: 0.86
fractional inhibitory concentration index (FICI) [7]: 0.95

Ratio [1]: 0.68
Structure (SMILES): CC(C)(CC[C@@H](O)[C@](C)(O)[C@H]1CC[C@@]2(O)C3=CC(=O)[C@@H]4C[C@@H](O)CC[C@]4(C)[C@H]3CC[C@]12C)O[C@@H]1O[C@H](CO)[C@@H](O)[C@H](O)[C@H]1O
fractional inhibitory concentration index (FICI) [2]: 1.05
fractional inhibitory concentration index (FICI) [3]: 0.72
fractional inhibitory concentration index (FICI) [4]: 0.51

Ratio [1]: 0.81
Structure (SMILES): CC(C)(O)CC[C@@H](O)[C@](C)(O)[C@H]1CC[C@@]2(O)C3=CC(=O)[C@H]4C[C@@H](O)[C@@H](O)C[C@]4(C)[C@H]3CC[C@]12C
fractional inhibitory concentration index (FICI) [2]: 0.99
fractional inhibitory concentration index (FICI) [3]: 0.57
fractional inhibitory concentration index (FICI) [4]: 0.37

Ratio [1]: 1.21
Structure (SMILES): CC(C)(O)CC[C@@H](O)[C@](C)(O)[C@H]1CC[C@@]2(O)C3=CC(=O)[C@@]4(O)C[C@@H](O)CC[C@]4(C)[C@H]3CC[C@]12C
fractional inhibitory concentration index (FICI) [2]: 0.78
fractional inhibitory concentration index (FICI) [3]: 0.45
fractional inhibitory concentration index (FICI) [4]: 0.27

Ratio [1]: 5.4
Structure (SMILES): CC(=O)[C@H]1CC[C@@]2(O)C3=CC(=O)[C@@H]4C[C@@H](O)[C@@H](O)C[C@]4(C)C3=CC[C@]12C
fractional inhibitory concentration index (FICI) [2]: 1.21
fractional inhibitory concentration index (FICI) [3]: 0.67
fractional inhibitory concentration index (FICI) [4]: 0.37

Structure (SMILES): CC(=O)O[C@H](CCC(C)(C)O)[C@](C)(O)[C@H]1CC[C@@]2(O)C3=CC(=O)[C@@H]4C[C@@H](O)[C@@H](O)C[C@]4(C)[C@H]3CC[C@]12C
Ratio [1]: 1.54
fractional inhibitory concentration index (FICI) [2]: 1.6
fractional inhibitory concentration index (FICI) [3]: 0.97
fractional inhibitory concentration index (FICI) [4]: 0.64

Ratio [1]: 1.21
Structure (SMILES): CC(=O)O[C@H](CCC(C)(C)O)[C@](C)(O)[C@H]1CC[C@@]2(O)C3=CC(=O)[C@@H]4C[C@@H](O)CC[C@]4(C)[C@H]3CC[C@]12C
fractional inhibitory concentration index (FICI) [2]: 1.03
fractional inhibitory concentration index (FICI) [3]: 0.66
fractional inhibitory concentration index (FICI) [4]: 0.44

Ratio [1]: 1.48
Structure (SMILES): CC(=O)O[C@H]1C[C@]2(C)[C@H]3CC[C@]4(C)[C@@H]([C@@](C)(O)[C@@H](CCC(C)(C)OC(C)=O)OC(C)=O)CC[C@@]4(O)C3=CC(=O)[C@]2(O)C[C@H]1OC(C)=O
fractional inhibitory concentration index (FICI) [2]: 0.65
fractional inhibitory concentration index (FICI) [3]: 0.46
fractional inhibitory concentration index (FICI) [4]: 0.38

Ratio [1]: 8.19
Structure (SMILES): CC(C)(O)CC[C@H]1OC(C)(C)O[C@]1(C)[C@H]1CC[C@@]2(O)C3=CC(=O)[C@H]4C[C@@H](O)CC[C@]4(C)[C@H]3CC[C@]12C
fractional inhibitory concentration index (FICI) [2]: 1.28
fractional inhibitory concentration index (FICI) [3]: 0.69
fractional inhibitory concentration index (FICI) [4]: 0.37

Ratio [1]: 1.21
Structure (SMILES): CC[C@H](C[C@H]1OC(C)(C)O[C@]1(C)[C@H]1CC[C@@]2(O)C3=CC(=O)[C@@H]4C[C@@H](O)[C@@H](O)C[C@]4(C)[C@H]3CC[C@]12C)C(C)(C)O
fractional inhibitory concentration index (FICI) [2]: 0.81
fractional inhibitory concentration index (FICI) [3]: 0.26
fractional inhibitory concentration index (FICI) [4]: 0.091

Ratio [1]: 1.8
Structure (SMILES): CC(C)(O)CC[C@H]1OC(C)(C)O[C@]1(C)[C@H]1CC[C@@]2(O)C3=CC(=O)[C@]4(O)C[C@@H](O)[C@@H](O)C[C@]4(C)[C@H]3CC[C@]12C
fractional inhibitory concentration index (FICI) [2]: 0.63
fractional inhibitory concentration index (FICI) [3]: 0.21
fractional inhibitory concentration index (FICI) [4]: 0.11

Structure (SMILES): CCC1=C(C)C(=O)O[C@@H]([C@](C)(O)[C@H]2CC[C@@]3(O)C4=CC(=O)[C@@H]5C[C@@H](O)[C@@H](O)C[C@]5(C)[C@H]4CC(=O)[C@]23C)C1 [AJUGALACTONE]
Ratio [1]: 0.87
fractional inhibitory concentration index (FICI) [2]: 1.43
fractional inhibitory concentration index (FICI) [3]: 1.96
fractional inhibitory concentration index (FICI) [4]: 2.89

Structure (SMILES): C[C@H]([C@H](O)CCC(C)(C)O)[C@H]1CC[C@@]2(O)C3=CC(=O)[C@@H]4C[C@@H](O)[C@@H](O)C[C@]4(C)[C@H]3CC[C@]12C [ECDYSONE]
Ratio [1]: 1.38
fractional inhibitory concentration index (FICI) [2]: 2.31
fractional inhibitory concentration index (FICI) [3]: 4.89
fractional inhibitory concentration index (FICI) [4]: 12.16

Structure (SMILES): CC(C)(O)CC[C@@H](O)[C@](C)(O)[C@H]1CC[C@@]2(O)C3=CC(=O)[C@@H]4C[C@@H](O)[C@@H](O)[C@@H](O)[C@]4(C)[C@H]3CC[C@]12C [INTEGRISTERONE A]
Ratio [1]: 0.94
fractional inhibitory concentration index (FICI) [2]: 0.8
fractional inhibitory concentration index (FICI) [3]: 1.31
fractional inhibitory concentration index (FICI) [4]: 2.42

Structure (SMILES): CC(C)CC[C@@H](O)[C@](C)(O)[C@H]1CC[C@@]2(O)C3=CC(=O)[C@]4(O)C[C@@H](O)[C@@H](O)C[C@]4(C)[C@H]3[C@H](O)C[C@]12C [MURISTERONE A]
Ratio [1]: 0.74

Structure (SMILES): CC(C)CC[C@@H](O)[C@](C)(O)[C@H]1CC[C@@]2(O)C3=CC(=O)[C@@H]4C[C@@H](O)[C@@H](O)C[C@]4(C)[C@H]3CC[C@]12C [PONASTERONE A]
Ratio [1]: 1.26
fractional inhibitory concentration index (FICI) [2]: 1.41
fractional inhibitory concentration index (FICI) [3]: 0.78
fractional inhibitory concentration index (FICI) [4]: 0.44

Structure (SMILES): CC1(C)CC[C@H]([C@](C)(O)[C@H]2CC[C@@]3(O)C4=CC(=O)[C@@H]5C[C@@H](O)[C@@H](O)C[C@]5(C)[C@H]4CC[C@]23C)O1 [SHIDASTERONE]
Ratio [1]: 0.88
fractional inhibitory concentration index (FICI) [2]: 1.44
fractional inhibitory concentration index (FICI) [3]: 0.32
fractional inhibitory concentration index (FICI) [4]: 0.096

Structure (SMILES): CC(C)(O)CC[C@@H](O)[C@](C)(O)[C@H]1CC[C@@]2(O)C3=CC(=O)[C@@H]4C[C@@H](O)[C@@H](O)C[C@]4(C)[C@H]3[C@H](O)C[C@]12C [TURKESTERONE]
Ratio [1]: 0.93
fractional inhibitory concentration index (FICI) [2]: 5.19
fractional inhibitory concentration index (FICI) [3]: 4.53
fractional inhibitory concentration index (FICI) [4]: 4.2

— ChEMBL document CHEMBL2086273, “Significant activity of ecdysteroids on the resistance to doxorubicin in mammalian cancer cells expressing the human ABCB1 transporter” (J Med Chem, 2012)
